Results published in PubChem BioAssay (NCI).
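Cells were grown in 96-well plates and exposed to each compound for 48 hours at five concentrations; endpoints were interpolated linearly between bracketing concentrations, or set to the highest concentration if not reached. Here, GI50 denotes the concentration required for 50% inhibition of growth. The concentration for full growth arrest is given as TGI.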

Key:
Experiment in all cases: growth of human tumour cells (NCI), 48 h
786-0 renal = test system: 786-0 renal
CAKI-1 renal = test system: CAKI-1 renal
NCI-H226 lung = test system: NCI-H226 lung
MOLT-4 leukemia = test system: MOLT-4 leukemia
A498 renal = test system: A498 renal
SK-MEL-5 melanoma = test system: SK-MEL-5 melanoma
OVCAR-4 ovarian = test system: OVCAR-4 ovarian
SF-295 CNS = test system: SF-295 CNS
OVCAR-8 ovarian = test system: OVCAR-8 ovarian
U251 CNS = test system: U251 CNS

## CC(=O)NNc1nc(C)c(C(/C=C/c2ccc3c(c2)OCO3)=N/NC(=O)c2ccncc2)s1
786-0 renal
  TGI: > 100 µM
CAKI-1 renal
  TGI: > 100 µM
NCI-H226 lung
  TGI: > 100 µM
MOLT-4 leukemia
  TGI: > 100 µM
A498 renal
  TGI: > 100 µM
SK-MEL-5 melanoma
  TGI: > 100 µM
OVCAR-4 ovarian
  TGI: > 100 µM
SF-295 CNS
  TGI: > 100 µM
OVCAR-8 ovarian
  TGI: > 100 µM
U251 CNS
  TGI: > 100 µM

## Nc1ncn([C@@H]2C=C(CO)C(O)C2O)c(=O)n1 (stereo not given in full)
786-0 renal
  TGI: > 100 µM
CAKI-1 renal
  TGI: > 100 µM
NCI-H226 lung
  TGI: > 100 µM
MOLT-4 leukemia
  TGI: > 100 µM
A498 renal
  TGI: > 100 µM
SK-MEL-5 melanoma
  TGI: > 100 µM
OVCAR-4 ovarian
  TGI: > 100 µM
SF-295 CNS
  TGI: > 100 µM
OVCAR-8 ovarian
  TGI: > 100 µM
U251 CNS
  TGI: > 100 µM

## C/C=C(\C)C(=O)O[C@@H]1C=CC(=O)O[C@H]1COC(=O)[C@H](C)O
786-0 renal
  GI50: 9.2 µM
  TGI: 21.2 µM
CAKI-1 renal
  GI50: 27 µM
  TGI: 42.9 µM
NCI-H226 lung
  GI50: 14.7 µM
  TGI: 44.7 µM
MOLT-4 leukemia
  GI50: 7.31 µM
  TGI: 28.4 µM
A498 renal
  GI50: 15.2 µM
  TGI: 30.4 µM
SK-MEL-5 melanoma
  GI50: 12.6 µM
  TGI: 25.1 µM
OVCAR-4 ovarian
  GI50: 11.5 µM
  TGI: 31 µM
SF-295 CNS
  GI50: 27.4 µM
  TGI: 62.1 µM
OVCAR-8 ovarian
  GI50: 18.1 µM
  TGI: > 100 µM
U251 CNS
  GI50: 11.5 µM
  TGI: 25 µM

## Nc1cc2c3c(cccc3c1)C(=O)N(CCN1CCN(CCN3C(=O)c4cccc5cc(N)cc(c45)C3=O)CC1)C2=O
786-0 renal
  TGI: > 100 µM
CAKI-1 renal
  TGI: > 100 µM
NCI-H226 lung
  TGI: > 100 µM
MOLT-4 leukemia
  TGI: > 100 µM
A498 renal
  TGI: > 100 µM
SK-MEL-5 melanoma
  TGI: > 100 µM
OVCAR-4 ovarian
  TGI: > 100 µM
SF-295 CNS
  TGI: > 100 µM
OVCAR-8 ovarian
  TGI: > 100 µM
U251 CNS
  TGI: > 100 µM

## C[C@@H](Oc1cc(-n2cnc3ccc(OCC4CCN(C)CC4)cc32)sc1C(N)=O)c1ccccc1C(F)(F)F
786-0 renal
  GI50: 0.523 µM
  TGI: 4.24 µM
CAKI-1 renal
  GI50: 1.91 µM
  TGI: 5.23 µM
NCI-H226 lung
  GI50: 1.55 µM
  TGI: 6.16 µM
MOLT-4 leukemia
  GI50: 0.0916 µM
  TGI: 2.98 µM
A498 renal
  GI50: 0.295 µM
  TGI: 1.56 µM
SK-MEL-5 melanoma
  GI50: 0.217 µM
  TGI: 2.95 µM
OVCAR-4 ovarian
  GI50: 0.699 µM
  TGI: 4.69 µM
SF-295 CNS
  GI50: 0.138 µM
  TGI: 3.39 µM
OVCAR-8 ovarian
  GI50: 0.0896 µM
  TGI: 2.85 µM
U251 CNS
  GI50: 0.11 µM
  TGI: 3.4 µM

## COc1cc(C2c3cc4c(cc3[C@@H](OCCN)[C@H]3COC(=O)C23)OCO4)cc(OC)c1O (stereo not given in full)
786-0 renal
  TGI: 0.437 µM
CAKI-1 renal
  TGI: 1.52 µM
NCI-H226 lung
  TGI: 0.933 µM
MOLT-4 leukemia
  TGI: 0.733 µM
A498 renal
  TGI: 1.67 µM
SK-MEL-5 melanoma
  TGI: 1.49 µM
OVCAR-4 ovarian
  TGI: 5.79 µM
SF-295 CNS
  TGI: 0.543 µM
OVCAR-8 ovarian
  TGI: 2.61 µM
U251 CNS
  TGI: 0.401 µM

## COc1cc2c(cc1OCCCN1CCN(CCCOc3cc4c(cc3OC)C(=O)C3CCC[C@H]3C=N4)CC1)N=C[C@@H]1CCCC1C2=O (stereo not given in full)
786-0 renal
  GI50: 3.84 µM
  TGI: > 100 µM
CAKI-1 renal
  GI50: 26.5 µM
  TGI: > 79.8 µM
NCI-H226 lung
  GI50: 13.2 µM
  TGI: > 100 µM
MOLT-4 leukemia
  GI50: 0.313 µM
  TGI: 2.53 µM
A498 renal
  GI50: 2.17 µM
  TGI: 7.49 µM
SK-MEL-5 melanoma
  GI50: 2.2 µM
  TGI: 6.4 µM
OVCAR-4 ovarian
  GI50: 74.3 µM
  TGI: > 100 µM
SF-295 CNS
  GI50: 9.4 µM
  TGI: 79.8 µM
OVCAR-8 ovarian
  GI50: 11.6 µM
  TGI: > 52.3 µM
U251 CNS
  GI50: 4.91 µM
  TGI: > 100 µM

## Nc1nccc(C#Cc2cncnc2Nc2ccc(OCc3cccc(F)c3)c(Cl)c2)n1
786-0 renal
  GI50: 7.69 µM
  TGI: > 20.1 µM
CAKI-1 renal
  GI50: 5.37 µM
  TGI: 11 µM
NCI-H226 lung
  GI50: 4.14 µM
  TGI: 7.83 µM
MOLT-4 leukemia
  GI50: 5.69 µM
  TGI: 21.5 µM
A498 renal
  GI50: 5.05 µM
  TGI: > 14.3 µM
SK-MEL-5 melanoma
  GI50: 3.51 µM
  TGI: 6.8 µM
OVCAR-4 ovarian
  GI50: 9.53 µM
  TGI: > 25 µM
SF-295 CNS
  GI50: 11.7 µM
  TGI: > 25 µM
OVCAR-8 ovarian
  GI50: 4.94 µM
  TGI: 24.8 µM
U251 CNS
  GI50: 3.82 µM
  TGI: 7.42 µM
